According to patent US11293870B2, “Vital stain” (Mie University, priority 2013, dated 2022):
Entries after “also recorded” stand apart in the source; their conditions may differ. Counter-ions that a name gives are not always drawn. Like-named read-outs stand apart in the source and are kept apart here.

Legend:
[1] = cited from earlier work
[2] = test system: epithelial cells/adenocytes and connective tissue/capillaries; experiment: Preferential staining of epithelial cells/adenocytes or connective tissue/capillaries; format: in vivo, mouse; settings: 5 mg/ml for curcumin, 1 mg/ml for all other dyes
Procedure: Drinking water containing 2% (w/v) dextran sodium sulfate (DSS) was given to 8-week-old C57B6 mice (male, approximately 20 g) for 7 days. After intraperitoneal injection of 0.2 ml of 5% chloral hydrate for anesthesia, the mouse abdominal wall was incised vertically to about 1 cm, and the gastrointestinal tract was raised over the abdominal wall to about 1 cm. Blood flow to the gastrointestinal tract was maintained during this time by the blood vessel flowing into the mesenteric attachment site. The gastrointestinal tract was incised vertically to about 1 cm on opposite side of the mesenteric attachment site, including the tunica muscularis and mucosa. The opposite side of the mesenteric attachment site was incised in order to prevent severance and damage of the blood vessel and minimize bleeding. When the incision site of the gastrointestinal tract was opened vertically, the mucosal surface of the gastrointestinal tract, as the food channel, became visible. When food digestion products were present they were wiped off with tissue paper.
A metal ring (outer diameter: 16 millimeters, inner diameter, 6 millimeters) was placed on a laboratory stage, and a rapid bonding adhesive (AronAlpha) was coated over the entire periphery of the ring surface on one side. Forceps were used to hold the rapid bonding adhesive-coated metal ring with the adhesive-coated surface facing downward, and it was set on the pronase-treated mucosal surface. During a period of about 5 minutes, the metal ring became anchored to the mucosa with the rapid bonding adhesive, and the region where the dye compound was to be applied was rinsed with PBS.
In order to avoid drying of the mucosal surface, a curcumin stock solution or sulfuretin stock solution diluted with physiological saline (PBS) (see Tables 1 to 3 for the dilution factors) was added dropwise onto the pronase-treated mucosal surface, and after allowing it to stand for 1 minute, it was rinsed 3 times with PBS, a cover glass was placed over the metal ring, and the objective lens of a multiphoton laser microscope (FV1000 MPE by Olympus Corp.) was brought near to the top of the cover glass for image observation.
The procedure from administration of the dye compound to observation was conducted as described above under “Evaluation of stainability” (same hereunder). Also, the administered concentration of dye to the mucosal surface was 5 mg/ml for curcumin as Dye No. 1, and 1 mg/ml for all of the other dyes.

[3] = test system: MDCK-GFP-Ras^V12 cells mixed with MDCK normal cells; experiment: In vitro assay of MDCK-Ras^V12 cancerized cell small aggregates as a very early cancer model; format: cell-based, canine; settings: excitation 750, 800, 850, 900 nm, red fluorescence
Procedure: The MDCK normal cells were cultured in a 10 cm dish, and the MDCK-GFP-Ras^V12 cells were cultured in a 6 cm dish. The culture solution used for the MDCK normal cells was DMEM (containing Phenol Red)+10% FBS+penicillin/streptomycin.
The solution used for the MDCK-GFP-Ras^V12 cells was DMEM (containing Phenol Red)+10% FBS+penicillin/streptomycin+Zeocin (400 μg/ml)+blasticidin (5 μg/ml). […] The seeding was carried out using a DMEM+10% FBS+penicillin/streptomycin culture solution, to 1.0 to 3.0×10^4 cells per well of the 96-well dish. Tetracycline at a concentration of 2 μg/ml was added to the culture solution after 4 days when seeding was to 1.0×10^4 or after 1 day when seeding was to 3.0×10^4, and GFP-Ras^V12 was expressed, forming cancerized cell small aggregates among the MDCK normal cells (NPL 3). After 18 to 36 hours, the cells in each of the wells were rinsed 3 times with 200 μl of PBS, and then the Prestwick Chemical Library compounds and the Ministry of Health, Labour and Welfare-approved food additives, each diluted to 1 μM with a 100 μl volume of PBS, were added to the respective wells and taken up by the cells for 5 minutes at room temperature. They were then rinsed 3 times with 200 μl of PBS, and in certain cases further rinsed once with 100 μl of DMEM without Phenol Red, and observed under a multiphoton laser microscope.

[4] = cited from earlier work; remark: listed apart in the source
[5] = test system: cancer lesion site versus normal mucosa of large intestine; experiment: Comparison of staining patterns in normal site and cancer tumor site of large intestine; format: in vivo, mouse; settings: Example 1; regardless of pronase treatment of the mucosal surface
Procedure: Drinking water containing 2% (w/v) dextran sodium sulfate (DSS) was given to 8-week-old C57B6 mice (male, approximately 20 g) for 7 days. After intraperitoneal injection of 0.2 ml of 5% chloral hydrate for anesthesia, the mouse abdominal wall was incised vertically to about 1 cm, and the gastrointestinal tract was raised over the abdominal wall to about 1 cm. Blood flow to the gastrointestinal tract was maintained during this time by the blood vessel flowing into the mesenteric attachment site. The gastrointestinal tract was incised vertically to about 1 cm on the opposite side of the mesenteric attachment site, including the tunica muscularis and mucosa. The opposite side of the mesenteric attachment site was incised in order to prevent severance and damage of the blood vessel and minimize bleeding. When the incision site of the gastrointestinal tract was opened vertically, the mucosal surface of the gastrointestinal tract, as the food channel, became visible. When food digestion products were present they were wiped off with tissue paper. In order to more clearly observe the gastrointestinal tract mucosal surface, a 1% pronase solution was dropped onto the mucosal surface and was allowed to stand still for 15 minutes. This pronase treatment removed the mucus from the mucosal surface, rendering the cell structure more easily visible. Next, the pronase was removed from the mucosal surface and rinsed with physiological saline (PBS). A metal ring (outer diameter: 16 millimeters, inner diameter, 6 millimeters) was placed on a laboratory stage, and a rapid bonding adhesive (AronAlpha) was coated over the entire periphery of the surface on one side. Forceps were used to hold the rapid bonding adhesive-coated metal ring with the adhesive-coated surface facing downward, and it was set on the pronase-treated mucosal surface. During a period of about 5 minutes, the metal ring became anchored to the mucosa with the rapid bonding adhesive, and the region where the dye compound was to be applied was rinsed with PBS. […] FIG. 32 is a drawing for illustration of a stainability evaluation step for the aforementioned dye compounds. […] Z stack image). […] Both of the staining photographs of the normal site and cancer tumor site were taken under the same conditions.

[6] = Prestwick Chemical Library compounds, 1 μM, 5 minutes
[7] = Ministry of Health, Labour and Welfare-approved food additives, 1 mg/ml

Row | Compound | LD50 ([1]; Mouse, Oral) | Cell group preferentially stained (epithelial cells/adenocytes or connective tissue/capillaries) [2] | also measured
1 | Oc1ccc(-c2ccc3c(O)cc(O)cc3[o+]2)cc1.[Cl-] [Apigeninidin] | 300 mg/kg | – | –
2 | O=C1/C(=C2\Nc3ccc(S(=O)(=O)[O-])cc3C2=O)Nc2ccc(S(=O)(=O)[O-])cc21.[Na+].[Na+] [Blue #2, indigo carmine] | 2000 mg/kg | preferentially stained connective tissue/capillaries | –
3 | CC1=C(/C=C/C(C)=C/C=C/C(C)=C/C=C/C=C(C)/C=C/C=C(C)/C=C/C(=O)[C@]2(C)C[C@@H](O)CC2(C)C)C(C)(C)C[C@H](O)C1 [Capsanthin] | 300 mg/kg | – | –
4 | COc1cc(-c2ccc(N=Nc3ccc4c(S(=O)(=O)[O-])cc(S(=O)(=O)[O-])c(N)c4c3O)c(OC)c2)ccc1N=Nc1ccc2c(S(=O)(=O)[O-])cc(S(=O)(=O)[O-])c(N)c2c1O.[Na+].[Na+].[Na+].[Na+] [Chicago sky blue 6B, reference compound] | – | – | Staining of GFP-Ras^V12 positive cancerized cells versus MDCK normal cells [3, 6]: labeling both cancerized cell small aggregates and normal cells; Staining of GFP-Ras^V12 positive cancerized cells versus MDCK normal cells ([3]; Prestwick Chemical Library compounds, 1 μM, 5 minutes, listed as Chicago Sky Blue 6B): equal staining of normal cells and cancer cells
5 | COc1cc(/C=C/C(=O)CC(=O)/C=C/c2ccc(O)c(OC)c2)ccc1O [Curcumin (pure), Curcumin] | – | – | LD50 ([1]; mouse, in vivo, po): 2000 mg/kg
6 | Oc1cc(O)c2cc(O)c(-c3ccc(O)c(O)c3)[o+]c2c1 [Cyanidin] | – | – | LD50 ([4]; rat, in vivo): 1500 mg/kg
7 | Oc1cc(O)c2cc(O)c(-c3cc(O)c(O)c(O)c3)[o+]c2c1 [Delphinidin] | – | – | LD50 ([4]; rat, in vivo): 1250 mg/kg
8 | O=C(O[C@@H]1Cc2c(O)cc(O)cc2O[C@@H]1c1cc(O)c(O)c(O)c1)c1cc(O)c(O)c(O)c1 [Epigallocatechin gallate] | 2170 mg/kg | preferentially stained epithelial cells/adenocytes | –
9 | CCCCC[C@H](O)CC(=O)CCc1ccc(O)c(OC)c1 [Gingerol, 6-gingerol] | – | preferentially stained epithelial cells/adenocytes | LD50 ([1]; mouse, in vivo, po): 250 mg/kg
10 | CCN(Cc1cccc(S(=O)(=O)[O-])c1)c1ccc(C(=C2C=CC(=[N+](CC)Cc3cccc(S(=O)(=O)[O-])c3)C=C2)c2ccc(O)cc2S(=O)(=O)[O-])cc1.[Na+].[Na+] [Green #3, Fast Green FCF] | – | some adenocytes and connective tissue/capillaries were strongly stained | Staining of GFP-Ras^V12 positive cancerized cells versus MDCK normal cells [3, 7]: labeled GFP-Ras^V12-positive cancerized cell small aggregates more intensely than normal cells; also recorded: specific staining of cancer cells; LD50 ([4]; Rat, Oral): >2000 mg/kg
11 | CC1(C)C(/C=C/C=C/C=C/C=C2\N(CCCCS(=O)(=O)O)c3ccc4ccccc4c3C2(C)C)=[N+](CCCCS(=O)(=O)[O-])c2ccc3ccccc3c21 [Indocyanine green, reference compound] | – | preferentially stained epithelial cells/adenocytes | –
12 | COc1cc(-c2[o+]c3cc(O)cc(O)c3cc2O)cc(OC)c1O [Malvidin] | – | – | LD50 ([1]; Mouse, Intra-venous): 18 mg/kg
13 | O=c1c(O)c(-c2cc(O)c(O)c(O)c2)oc2cc(O)cc(O)c12 [Myricetin] | 300 mg/kg | preferentially stained epithelial cells/adenocytes | –
14 | Oc1ccc(-c2[o+]c3cc(O)cc(O)c3cc2O)cc1 [Pelargonidin] | 300 mg/kg | – | –
15 | COc1cc(-c2[o+]c3cc(O)cc(O)c3cc2O)cc(O)c1O [Petunidine] | – | preferentially stained epithelial cells/adenocytes | LD50 ([1]; Mouse, Intra-abdominal): 4110 mg/mL
16 | O=c1c(O)c(-c2ccc(O)c(O)c2)oc2cc(O)cc(O)c12 [Quercetin] | – | intensely stained connective tissue/capillaries and faintly stained epithelial cells/adenocytes | –
17 | O=S(=O)([O-])c1ccc2c(N=Nc3ccc(S(=O)(=O)[O-])c4ccccc34)c(O)c(S(=O)(=O)[O-])cc2c1.[Na+].[Na+].[Na+] [Red #2] | – | – | LD50 ([1]; Mouse, Intra-abdominal): 1000 mg/kg
18 | O=C1OC2(c3ccccc31)c1cc(I)c(O)c(I)c1Oc1c2cc(I)c(O)c1I [Red #3, erythrosine] | – | preferentially stained epithelial cells/adenocytes | Staining of cancer lesion sites compared with normal mucosa [5]: stained cancer lesion sites much more intensely than normal mucosa; Staining of GFP-Ras^V12 positive cancerized cells versus MDCK normal cells [3, 7]: GFP-Ras^V12 positive cells were preferentially stained; Staining of GFP-Ras^V12 positive cancerized cells versus MDCK normal cells ([3]; Ministry of Health, Labour and Welfare-approved food additives, 1 mg/ml, listed as erythrosine): labeled GFP-Ras^V12-positive cancerized cell small aggregates more intensely than normal cells; LD50 ([1]; mouse, in vivo, po): 6800 mg/kg
19 | O=C([O-])c1c(Cl)c(Cl)c(Cl)c(Cl)c1-c1c2cc(I)c(=O)c(I)c-2oc2c(I)c([O-])c(I)cc12.[Na+].[Na+] [Red #105 (720 nm)] | 6480 mg/kg | – | –
20 | CCN(CC)c1ccc2c(-c3ccc(S(=O)(=O)[O-])cc3S(=O)(=O)[O-])c3ccc(=[N+](CC)CC)cc-3oc2c1.[Na+] [Red #106, Acid Red] | >20,000 mg/kg | the cell membranes of epithelial cells and adenocytes, and connective tissue/capillaries were strongly stained | Staining of GFP-Ras^V12 positive cancerized cells versus MDCK normal cells [3, 7]: labeled both cancerized cell small aggregates and normal cells; also recorded: staining of both normal cells and cancer cells; LD50 ([1]; Mouse, Oral, listed as Acid Red): >20000 mg/kg
21 | Oc1ccc2cc(O)c(-c3cc(O)c(O)c(O)c3)[o+]c2c1 [Robinetinidin] | – | preferentially stained connective tissue/capillaries | –
22 | Oc1cc(O)c2ccc(-c3cc(O)c(O)c(O)c3)[o+]c2c1 [Tricetinidin] | 300 mg/kg | preferentially stained epithelial cells/adenocytes | –
23 | O=C(O)c1nn(-c2ccc(S(=O)(=O)O)cc2)c(O)c1N=Nc1ccc(S(=O)(=O)O)cc1 [Yellow #4, tartrazine] | 12750 mg/kg | – | –
24 | O=S(=O)([O-])c1ccc(N=Nc2c(O)ccc3cc(S(=O)(=O)[O-])ccc23)cc1.[Na+].[Na+] [Yellow #5, Sunset Yellow FCF] | >6000 mg/kg | – | –
25 | COc1cccc2c1C(=O)c1c(O)c3c(c(O)c1C2=O)C[C@@](O)(C(=O)CO)C[C@@H]3O[C@H]1C[C@H](N)[C@H](O)[C@H](C)O1 [doxorubicin hydrochloride, reference compound] | – | – | Staining of GFP-Ras^V12 positive cancerized cells versus MDCK normal cells ([3]; Prestwick Chemical Library compounds, 1 μM, 5 minutes, hydrochloride): intensely labeling MDCK normal cells compared to cancerized cell small aggregates; also recorded: GFP-Ras^V12 cells were not specifically stained, but normal cells were stained
26 | O=C([O-])c1ccccc1-c1c2cc(Br)c(=O)cc-2oc2[c]([Hg+])c([O-])c(Br)cc12.[Na+].[Na+].[OH-] [merbromin, reference compound] | – | – | Staining of GFP-Ras^V12 positive cancerized cells versus MDCK normal cells [3, 6]: intensely labeled in GFP-Ras^V12 positive cancerized cell small aggregates compared to normal cells; also recorded: GFP-Ras^V12 positive cells were preferentially stained
27 | CC1=C(/C=C/C(C)=C/C=C/C(C)=C/C=C/C=C(C)/C=C/C=C(C)/C=C/C2=C(C)CCCC2(C)C)C(C)(C)CCC1 [β-Carotene] | – | preferentially stained epithelial cells/adenocytes | LD50 ([4]; Rat, Oral): 5000 mg/kg
28 | meclocycline sulfosalicylate [reference compound] | – | – | Staining of GFP-Ras^V12 positive cancerized cells versus MDCK normal cells [3, 6]: intensely labeled in GFP-Ras^V12 positive cancerized cell small aggregates compared to normal cells; also recorded: GFP-Ras^V12 positive cells were preferentially stained
